Structures are written as SMILES.

For one compound, anti-proliferative response results are on record in patent publication US11814428B2, “Anti-PTCRA antibody-drug conjugates and uses thereof” (REGENERON PHARMACEUTICALS, INC., priority 2019, dated 2023).

In this experiment the test system is SupT1 cells. Kind of experiment: Proliferation of T-ALL cells treated with SRC-family kinase inhibitor. The experiment is classed as cell-based, human. Conditions: PTCRA-dependent T-ALL cell lines.

`Cc1ccc(-c2nn(C(C)(C)C)c3ncnc(N)c23)cc1` [PP1]: the anti-proliferative response entry is reported as “dose-dependent anti-proliferative response”.
